Nine compounds from patent publication US10160748B2 (AbbVie Inc., priority 2015, dated 2018) can be followed below.

As a reminder, the IC50 is the midpoint of a concentration-inhibition curve.

This test concerns the target TNFα trimer (Homo sapiens, UniProt P01375). Kind of test: TNFα FP Competitive Binding Assay. Conditions: FP binding assay; 20 nM TNFα trimer, 1 nM OregonGreen488 probe; read-out: TNF IC50. In short, it runs like this:
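Compounds in 12-point 1:3 series, final top 100 μM (2.0% DMSO) or 338 μM (3.4% DMSO), displace 1 nM fluorescent probe from 20 nM TNFα trimer. After 18-24 h incubation plus 1 h rt equilibration, background-subtracted polarization measured and curves fitted with variable slope.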

Chain of TNFα trimer (P01375 77-233 limits assumed): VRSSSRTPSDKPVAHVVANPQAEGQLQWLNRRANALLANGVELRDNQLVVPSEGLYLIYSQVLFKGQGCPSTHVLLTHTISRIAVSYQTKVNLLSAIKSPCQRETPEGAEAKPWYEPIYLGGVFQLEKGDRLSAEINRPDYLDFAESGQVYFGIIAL

On to `Cn1c(=O)c2ccc(-c3cnc(C(C)(C)O)nc3)cc2n1Cc1cn(Cc2cccnc2)cc1C(F)(F)F` [Example #127], for which the IC50 is less than 1000 nM.

Consider `Cn1c(=O)c2ccc(-c3cnc(C(C)(C)O)nc3)cc2n1Cc1cn(Cc2ccnnc2)cc1C(F)(F)F` [Example #128, 6-(2-(2-Hydroxypropan-2-yl)pyrimidin-5-yl)-2-methyl-1-((1-(pyridazin-4-ylmethyl)-4-(trifluoromethyl)-1H-pyrrol-3-yl)methyl)-1H-indazol-3(2H)-one], for which the 50% inhibitory concentration (IC50) is 1000 to 10000 nM.

Consider `CC(=O)N1CCN(c2ncc(-c3ccc4c(=O)n(C)n(Cc5cc(CN6CCN(C)C6=O)ccc5OC(F)F)c4c3)cn2)C[C@H]1C` [Example #129*, (R)-6-(2-(4-Acetyl-3-methylpiperazin-1-yl)pyrimidin-5-yl)-1-(2-(difluoromethoxy)-5-((3-methyl-2-oxoimidazolidin-1-yl)methyl)benzyl)-2-methyl-1H-indazol-3(2H)-one], for which the IC50 fell in the range of 1000 to 10000 nM.

For `COc1c[nH]nc1Cn1cc(Cn2c3cc(-c4cnc(C(C)(C)O)nc4)ccc3c(=O)n2C)c(C(F)(F)F)c1` [Example #130, 6-(2-(2-Hydroxypropan-2-yl)pyrimidin-5-yl)-1-((1-((4-methoxy-1H-pyrazol-3-yl)methyl)-4-(trifluoromethyl)-1H-pyrrol-3-yl)methyl)-2-methyl-1H-indazol-3(2H)-one], the IC50 was less than 1000 nM.

With `Cc1ccc(OC(F)F)c(Cn2c3cc(C4=CCC(C(C)O)OC4)c(F)cc3c(=O)n2C)c1` (stereo not drawn) [Example #131, 1-(2-(Difluoromethoxy)-5-methylbenzyl)-5-fluoro-6-(6-(1-hydroxyethyl)-5,6-dihydro-2H-pyran-3-yl)-2-methyl-1H-indazol-3(2H)-one], the IC50 was less than 1000 nM.

As for `Cc1ccc(OC(F)F)c(Cn2c3cc(C4=CCC(C(C)(C)O)OC4)c(F)cc3c(=O)n2C)c1` (stereo not drawn) [Example #132, 1-(2-(Difluoromethoxy)-5-methylbenzyl)-5-fluoro-6-(6-(2-hydroxypropan-2-yl)-5,6-dihydro-2H-pyran-3-yl)-2-methyl-1H-indazol-3(2H)-one], the IC50 is less than 1000 nM.

For `Cn1c(=O)c2ccc(-c3cnc(C(C)(C)O)nc3)cc2n1Cc1cc(Cc2ccn[nH]2)ccc1OC(F)F` [Example #133, 1-(5-((1H-Pyrazol-5-yl)methyl)-2-(difluoromethoxy)benzyl)-6-(2-(2-hydroxypropan-2-yl)pyrimidin-5-yl)-2-methyl-1H-indazol-3(2H)-one], the IC50 was less than 1000 nM.

Turning to `CC(=O)N1CCN(c2ncc(-c3ccc4c(=O)n(Cc5cccc(C#N)c5)n(Cc5ccccc5Cl)c4c3)cn2)C[C@H]1C` [Example #134*, (R)-3-((6-(2-(4-Acetyl-3-methylpiperazin-1-yl)pyrimidin-5-yl)-1-(2-chlorobenzyl)-3-oxo-1H-indazol-2(3H)-yl)methyl)benzonitrile], the IC50 was in the range of 1000 to 10000 nM.

As to `Cc1ccc(OC(F)F)c(Cn2c3cc(-c4cnn5c(C(C)(C)O)cnc5c4)ccc3c(=O)n2C)c1` [Example #135, 1-(2-(Difluoromethoxy)-5-methylbenzyl)-6-(3-(2-hydroxypropan-2-yl)imidazo[1,2-b]pyridazin-7-yl)-2-methyl-1H-indazol-3(2H)-one], the IC50 was less than 1000 nM.
